In brackets after ≈: the same amount, converted by molar mass. Read-outs that look alike come from different tables or passages of the source.
Legend:
[1] = test system: Pseudomonas aeruginosa ATCC 10145; test: MIC, two-fold dilution microtiter, P. aeruginosa ATCC 10145; format: cell-based; conditions: Pseudomonas aeruginosa, ATCC10145; P. aeruginosa ATCC 10145; Iso-Sensitest broth; 18-24 h, 37° C; read-out: MIC
S. pneumoniae UC 41 = test: MIC, two-fold dilution microtiter, S. pneumoniae UC 41; format: cell-based; conditions: Streptococcus pneumoniae, UC41, Todd-Hewitt broth, 18-24 h, 37° C, read-out: MIC
[2] = test system: Klebsiella pneumoniae ISM; test: MIC, two-fold dilution microtiter, K. pneumoniae ISM; format: cell-based; conditions: Klebsiella pneumoniae
S. aureus TOUR L 1282 = test: MIC, two-fold dilution microtiter, rifampicin resistant S. aureus TOUR L 1282; format: cell-based; conditions: Staphylococcus aureus, TOURL1282, rifampicin resistant strain
S. faecalis ATCC 7080 = test: MIC, two-fold dilution microtiter, S. faecalis ATCC 7080; format: cell-based; conditions: Enterococcus faecalis, ATCC7080, 18-24 h, 37° C, read-out: MIC
S. aureus TOUR L 165 [3] = test: MIC, two-fold dilution microtiter, S. aureus TOUR L 165; format: cell-based, Staphylococcus aureus; conditions: Staphylococcus aureus, TOURL165, S. aureus TOUR L 165, read-out: MIC
[4] = test system: Proteus vulgaris XI9H ATCC 881; test: MIC, two-fold dilution microtiter, P. vulgaris; format: cell-based; conditions: Proteus vulgaris, ATCC881; P. vulgaris XI9H ATCC 881; Iso-Sensitest broth; 18-24 h, 37° C; read-out: MIC
[5] = test system: Streptococcus pyogenes C203; test: MIC, two-fold dilution microtiter, S. pyogenes C203; format: cell-based; conditions: Streptococcus pyogenes, Todd-Hewitt broth, 18-24 h, 37° C, read-out: MIC
Protocol: (§1) The minimum inhibitory concentration (MIC) of representative compounds of the invention was determined using two-fold dilution method in microtiter system. The media used were: Todd-Hewitt broth (Difco) for steptococci; Iso-Sensitest broth (Oxoid) for staphylococci and gram-negative bacteria. The final inoculum was about 10^4 cfμ/ml. […] For M. tuberculosis H37 RV the inoculum consisted of 0.5-1% of a 7-9 day culture in Dubos medium. The tests were carried out in Kirschner medium supplemented with 10% horse serum. Observations were made after 7-days incubation at 37° C.

[6] = test system: Staphylococcus aureus ATCC 6538; test: MIC, two-fold dilution microtiter, S. aureus ATCC 6538; format: cell-based; conditions: Staphylococcus aureus, ATCC6538; S. aureus ATCC 6538; Iso-Sensitest broth; 18-24 h, 37° C; read-out: MIC
[7] = test system: Mycobacterium tuberculosis H37RV ATCC 9360; test: MIC, M. tuberculosis H37RV, Kirschner medium; format: cell-based; conditions: Mycobacterium tuberculosis, 168 h, 10% horse serum, 7 days, 37° C, read-out: MIC
Protocol: as §1

[8] = test system: Escherichia coli SKF 12140; test: MIC, two-fold dilution microtiter, E. coli SKF 12140; format: cell-based; conditions: Escherichia coli, SKF12140, Iso-Sensitest broth, 18-24 h, 37° C, read-out: MIC
S. aureus tour L 165 [9] = test: experimental septicemia in mice (S. aureus); format: in vivo; conditions: Staphylococcus aureus, once daily for three days, survival on 10th day
Protocol: The antimicrobial activity of the compounds of the invention is also confirmed in "in vivo" tests. The animals (groups of five mice) were infected by intraperitoneal injection of 16-hour broth culture of S. aureus tour L 165. Inocula were adjusted so that untreated animals died of septicemia within 48 hours. Animals were treated once daily for three days starting immediately after infection. On the 10th day the value for the ED50 in mg/kg/day was calculated by the method of […]-KARBER (Finney, D. J., Statistical method in biological assay, page 524. C. Griffin Ltd., London, 1952), on the basis of the percentage of surviving animals at each dose.

[10] = Iso-Sensitest broth, 18-24 h, 37° C
[11] = supplemented with 30% bovine serum

SMILES: COc1ccc(N2CCN(c3nc4c(s3)c3c(O)c5c(O)c(C)c6c(c54)C(=O)C(C)(OC=CC(OC)C(C)C(OC(C)=O)C(C)C(O)C(C)C(O)C(C)C=CC=C(C)C(=O)N3)O6)CC2)cc1 (stereo not shown) [Example 3e, 2'-[4"(4'"-methoxyphenyl)-1-piperazinyl]rifamycin P]
- MIC [1]: 8 µg/mL (≈ 8.61 µM)
- MIC (S. pneumoniae UC 41): 0.064 µg/mL (≈ 0.0689 µM)
- MIC [2]: > 128 µg/mL
- MIC (S. aureus TOUR L 1282): > 128 µg/mL
- MIC (S. faecalis ATCC 7080): 4 µg/mL (≈ 4.31 µM)
- MIC (S. aureus TOUR L 165 [3]; [10]): 0.064 µg/mL (≈ 0.0689 µM)
- MIC (S. aureus TOUR L 165 [3]; [11]): 0.5 µg/mL (≈ 0.538 µM)
- MIC [4]: 64 µg/mL (≈ 68.9 µM)
- MIC [5]: 0.125 µg/mL (≈ 0.135 µM)
- MIC [6]: 0.064 µg/mL (≈ 0.0689 µM)
- MIC [7]: 0.25 µg/mL (≈ 0.269 µM)
- MIC [8]: 8 µg/mL (≈ 8.61 µM)
- ED50 (S. aureus tour L 165 [9]; TOURL165, 240 h, sc): 0.63 mg/kg
- ED50 (S. aureus tour L 165 [9]; TOURL165, po, 240 h, os): 1.9 mg/kg

SMILES: COC1C=COC2(C)Oc3c(C)c(O)c4c(O)c(c5sc(N6CCN(C)CC6)nc5c4c3C2=O)NC(=O)C(C)=CC=CC(C)C(O)C(C)C(O)C(C)C(O)C1C (stereo not shown) [Example 3b, 25-Desacetyl-2'-(4"-methyl-1-piperazinyl) rifamycin P]
- MIC [1]: 8 µg/mL (≈ 10.1 µM)
- MIC (S. pneumoniae UC 41): 0.063 µg/mL (≈ 0.0792 µM)
- MIC ([2]; K. pneumoniae ISM, Iso-Sensitest broth, 18-24 h, 37° C, read-out: MIC): 16 µg/mL (≈ 20.1 µM)
- MIC (S. aureus TOUR L 1282): > 128 µg/mL
- MIC (S. faecalis ATCC 7080): 1 µg/mL (≈ 1.26 µM)
- MIC (S. aureus TOUR L 165 [3]; [10]): 0.008 µg/mL (≈ 0.0101 µM)
- MIC (S. aureus TOUR L 165 [3]; [11]): 0.016 µg/mL (≈ 0.0201 µM)
- MIC [4]: 8 µg/mL (≈ 10.1 µM)
- MIC [5]: 0.063 µg/mL (≈ 0.0792 µM)
- MIC [6]: 0.008 µg/mL (≈ 0.0101 µM)
- MIC [7]: 1 µg/mL (≈ 1.26 µM)
- MIC [8]: 8 µg/mL (≈ 10.1 µM)
- ED50 (S. aureus tour L 165 [9]; TOURL165, 240 h, sc): 10 mg/kg
- ED50 (S. aureus tour L 165 [9]; TOURL165, po, 240 h, os): 13 mg/kg

Reference: US4880789A, “2'-Substituted-4-deoxy-thiazolo(5,4-c)-rifamycin SV derivatives” (Gruppo Lepetit S.P.A., priority 1985, dated 1989)
